Experimental data: patent US8394797B2, “Substituted pyrazole sigma receptor antagonists” (Laboratorios Del Dr. Esteve, S.A., priority 2004, dated 2013)

Assays:
sigma-1 site = sigma-1 site (Homo sapiens, UniProt Q99720); conditions: cited from earlier work
sigma-2 site = sigma-2 site (Homo sapiens, UniProt Q5BJF2); conditions: cited from earlier work
[1] = tested on: capsaicin-induced mechanical allodynia in mice; test: Effect on capsaicin in development of mechanical allodynia (von Frey filaments); assay type: in vivo; conditions: mice, capsaicin, von Frey filaments
Experimental: Effect on Capsaicin in Development of Mechanical Allodynia This model uses the von-Frey Filaments and is a model to test the effects or symptoms of neuropathic pain, allodynia etc. […]. After habituation mice were according to FIG. 1 first treated with the test-compound (or solvent in controls). Then […] (1% DMSO) is injected into their paw resulting in developing pain in the effected paw. The effected paw is then treated with a mechanical stimulus and the latency time before the paw is withdrawn is measured.

σ2-receptor = biological target: T1, σ2-receptor (Mus musculus, UniProt Q8VD00); test: Sigma-2 receptor binding, [3H]-DTG, brains from sigma-1 knockout mice
T1 construct: brains from sigma receptor type I (sigma-1) knockout mice were homogenized; from tissue; host or cells: brain membranes of sigma-1 knockout mice
T1 sequence (Q8VD00 1-176): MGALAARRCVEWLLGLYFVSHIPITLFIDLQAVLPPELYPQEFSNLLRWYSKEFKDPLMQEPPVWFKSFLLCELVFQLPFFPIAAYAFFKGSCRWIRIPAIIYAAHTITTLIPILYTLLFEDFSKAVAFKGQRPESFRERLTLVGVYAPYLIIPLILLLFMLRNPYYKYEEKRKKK
Experimental: In brief, brains from sigma receptor type I (sigma-1) knockout mice were homogenized in a volume of 10 mL/g tissue net weight of ice-cold 10 mM Tris-HCl, pH 7.4, containing 320 mM sucrose (Tris-sucrose buffer) with a Potter-Elvehjem homogenizer (10 strokes at 500 r.p.m.) The homogenates were then centrifuged at 1000 g for 10 min at 4° C., and the supernatants were saved. The pellets were resuspended by vortexing in 2 mL/g ice-cold Tris-sucrose buffer and centrifuged again at 1000 g for 10 min. The combined 1000 g supernatants were centrifuged at 31000 g for 15 min at 4° C. The pellets were resuspended by vortexing in 3 mL/g 10 mM Tris-HCl, pH 7.4, and the suspension was kept at 25° C. for 15 min.
The assay tubes contained 10 μL of [^3H]-DTG (final concentration of 3 nM), 400 μL of the tissue suspension (5.3 mL/g in 50 mM Tris-HCl, pH 8.0) to a final assay volume of 0.5 mL. Non-specific binding was defined by addition of a final concentration of 1 μM haloperidol. […] Filters were washed with three times with 5 mL volumes of cold Tris-HCl buffer (10 mM, pH 8.0). Following addition of scintillation cocktail samples were allowed to equilibrate overnight.

[2] = tested on: carrageenan-induced thermal hyperalgesia in mice; test: Carrageenan-induced thermal hyperalgesia model (plantar test, Hargreaves); assay type: in vivo
Experimental: Some compounds were also evaluated for antinociceptive activity in the carrageenan-induced thermal hyperalgesia model in mice. In this model, two hours after carrageenan injection into the paw, the plantar test was used to assess thermal hyperalgesia according to the method described by Hargreaves et al. (1988). The compounds of Examples 58 and 62.

[3] = tested on: mechanical allodynia after partial sciatic nerve ligation in mice; test: Partial sciatic nerve ligation model of neuropathic pain (von Frey test); assay type: in vivo; conditions: 30 mg/kg s.c.; 11-13 days after surgery
Source text: The von Frey test was used to assess mechanical allodynia 11-13 days after surgery.

σ1-receptor = biological target: T2, σ1-receptor (Cavia porcellus, UniProt Q60492); test: Sigma-1 receptor binding, [3H](+)-pentazocine, brain membranes; parameters: species or system guinea pig
T2 construct: guinea pig brains were homogenized; from tissue; host or cells: guinea pig brain membranes
T2 sequence (Q60492 whole entry): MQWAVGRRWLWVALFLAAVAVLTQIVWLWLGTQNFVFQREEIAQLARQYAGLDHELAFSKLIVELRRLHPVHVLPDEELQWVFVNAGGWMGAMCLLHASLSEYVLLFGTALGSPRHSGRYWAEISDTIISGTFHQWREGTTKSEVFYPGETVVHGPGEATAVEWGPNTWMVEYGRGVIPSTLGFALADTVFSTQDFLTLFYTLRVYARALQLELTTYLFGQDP

Chain of sigma-1 site (Q99720 whole entry): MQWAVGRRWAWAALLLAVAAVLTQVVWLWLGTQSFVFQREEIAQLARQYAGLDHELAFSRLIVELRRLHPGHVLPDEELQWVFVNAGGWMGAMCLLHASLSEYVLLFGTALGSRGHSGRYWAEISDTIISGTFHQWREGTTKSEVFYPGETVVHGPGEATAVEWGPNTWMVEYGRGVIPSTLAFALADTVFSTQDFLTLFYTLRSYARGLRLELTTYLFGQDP
Chain of sigma-2 site (Q5BJF2 whole entry): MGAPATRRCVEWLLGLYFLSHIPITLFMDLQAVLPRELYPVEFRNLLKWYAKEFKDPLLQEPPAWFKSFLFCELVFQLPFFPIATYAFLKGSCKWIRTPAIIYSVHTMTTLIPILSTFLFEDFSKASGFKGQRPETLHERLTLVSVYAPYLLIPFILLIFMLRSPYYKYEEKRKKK

Compound | affinity for the sigma-1 site (sigma-1 site) | affinity for the sigma-2 site (sigma-2 site) | antiallodynic effect [1] | inhibition at 1 µM (σ2-receptor; 2 h, tested compound at 10^-6 M, [3H]-DTG 3 nM, read-out: binding sigma-2 (*) % of radioactively labeled compound replaced by the tested compound) | Ki (σ2-receptor; [3H]-DTG, sigma-1 knockout mouse brain) | analgesia ([2]; 2.5 mg/kg) | analgesia ([2]; 10 mg/kg) | analgesia ([2]; 40 mg/kg) | activity in the carrageenan thermal hyperalgesia model ([2]; mice, two hours after carrageenan) | inhibition of mechanical allodynia [3] | melting point | inhibition at 1 µM (σ1-receptor; 2.5 h, tested compound at 10^-6 M, [3H](+)-pentazocine 0.5 nM, read-out: binding sigma-1 (*) % of radioactively labeled compound replaced by the tested compound) | Ki (σ1-receptor; [3H](+)-pentazocine, guinea pig brain membranes, read-out: binding sigma-1 Ki)
SKF 10047 | nanomolar affinity | micromolar affinity | – | – | – | – | – | – | – | – | – | – | –
CN(CCC1CCCc2c1cnn2C)Cc1ccccc1.O=C(O)C(=O)O (stereo not shown) [Example 62, N-benzyl-2-(4,5,6,7-tetrahydro-1-methyl-1H-indazol-4-yl)-N-methylethanamine oxalate] | – | – | clear antiallodynic effect | 93.5% | 11.9 nM | 40% | 75% | 90% | highly active | significant inhibition of mechanical allodynia | 140.2 to 141.7 °C | 104% | 11.1 nM
